Test results published in patent US7378397B2 (The Provost, Fellows and Scholars of the College of the …, priority 2000, dated 2008).
Entries after “also recorded” stand apart in the source; their conditions may differ. Where a SMILES comes first, the peptide text is derived from it. [ ]: non-standard residue; d: D form. hPhe = N[C@@H](CCc1ccccc1)C(=O)O; pGlu = O=C1CC[C@@H](C(=O)O)N1; Phg = N[C@H](C(=O)O)c1ccccc1

How the values were obtained:
TRH-DE [1] = molecular target: T1, TRH-DE (Sus scrofa, UniProt A0A287AP33); assay: continuous coupled fluorometric TRH-DE assay (TRHAMC substrate, DPP-IV coupling enzyme); assay type: biochemical, porcine; settings: for inhibition at 1000 µM: peptide 1 mM, 5 μM TRHAMC substrate
T1 construct: The inventor purified TRH-DE from porcine brain according to purification procedures previously published by Dr. K. Bauer; from tissue; host or cells: porcine brain (TRH-DE); bovine kidney (DPP-IV, gift from Dr. C. H. Williams)
Experimental: (§1) The inventor purified TRH-DE from porcine brain according to purification procedures previously published by Dr. K. Bauer, (Max-Planck-Institut, Hannover, Germany) (1). TRH-DE was purified almost 20,000 fold. […] Dipeptidyl peptidase IV (DPP-IV) (EC 3.4.14.5), purified from bovine kidney (7.7 mg ml^−1, specific activity of 17.5 U mg^−1 with Gly-ProAMC as substrate), was obtained as a gilt from Dr. C. H. Williams (Queen's University Belfast, U.K). (DPP-IV was used as the coupling enzyme used in the fluorometric assays).
(§2) One unit (U) of enzyme activity was defined as that amount catalysing the formation of one μmol of product in one minute under the standard conditions employed. All incubations in the assays described below were carried out in 20 mM potassium phosphate buffer, pH 7.5, at 37° C.
Kinetic analysis of peptides that are not hydrolysed by TRH-DE. A recently-developed continuous coupled fluorometric assay (23) was used to investigate the ability of those library peptides that were not hydrolysed by TRH-DE to inhibit TRHAMC degradation by TRH-DE. In this assay, TRHAMC is the substrate and dipeptidyl peptidase IV (DPP-IV) (EC 3.4.14.5) is the coupling enzyme. The reaction sequence is:
The reaction was monitored continuously by measuring the increase in AMC fluorescence. A linear progress curve with no discernible lag period was observed when the reaction was monitored over a period of 10 minutes. Nevertheless, data sampling was not commenced until 100 s from the start of the reaction to ensure measurements were taken after a steady state had been reached (see Ref. 23).
In a preliminary experiment, the peptides were screened for their ability to inhibit TRH-DE activity. The initial rate of TRHAMC hydrolysis by TRH-DE was measured by incubating 5 μM TRHAMC with 1.23 μg DPP-IV and 0.32 μg TRH-DE, both in the absence and presence of each library peptide (1 mM final concentration) under standard assay conditions (23). In each case the percentage inhibition (i%) was calculated using the equation i%=100(1-vi/vo), where vi and vo are the initial velocities in the presence and absence of peptide, respectively.
Since these peptides were poor inhibitors they were not examined further. The Ki values for the remainder of the peptides were determined by measuring their effects on TRHAMC degradation by TRH-DE using the continuous assay. Data were collected in duplicate at five different substrate concentrations and at least three different concentrations of each peptide.
Reversibility and time dependence of the inhibition produced by Glp-Gln-ProNH2, Glp-Asn-ProNH2 and Glp-Asn-ProAMC were examined by initially preincubating TRH-DE with each peptide at 37° C. for various periods up to 75 min. To investigate time dependence, the enzyme-peptide solution was subsequently added to the reaction mixture containing TRHAMC, DPP-IV, buffer and peptide, and TRH-DE activity was measured using the continuous assay. The final concentration of Glp-Gln-ProNH2, Glp-Asn-ProNH2 and Glp-Asn-ProAMC used was 400, 160 and 1 μM, respectively. […] TRH-DE activity was not affected by pre-incubation at 37° C.
Fluorescence measurements were made using a Perkin Elmer LS 50B Luminescence Spectrometer fitted with a thernostated cell holder. Wavelengths for excitation and emission were set at 370 nm and 440 nm, respectively, with slit widths of 10 nm and 5 nm, respectively.

TRH-DE [2] = molecular target: T1, TRH-DE; assay: HPLC assay of peptide hydrolysis by TRH-DE (Glp production); assay type: biochemical, porcine; settings: for hydrolysis by TRH-DE (release of Glp): 1 mM peptide incubated with TRH-DE 18 h at 37° C., HPLC; for Rate of hydrolysis: peptide 1 mM, 37° C., Glp production by HPLC, mean±S.D.
Experimental: as §1, §2
Kinetic analysis of the peptide library using HPLC—The ability of each peptide in the library to act as a TRH-DE substrate was assessed using HPLC. As an initial screen, 1 mM peptide was incubated with 0.8 μg TRH-DE in a total volume of 1 ml for 18 h at 37° C. Control samples were included in which peptide (1 mM) or Glp (0.2 mM-0.8 mM) were incubated under identical conditions in the absence of TRH-DE. TRH-DE activity was terminated by the addition of TFA (0.15% v/v) and samples were then analysed using HPLC as described previously (24). Products resulting from TRH-DE hydrolysis could be separated on a C-18 reverse-phase column (Hypersil, UK) using a linear gradient of 0-70% acetonitrile in 0.08% (v/v) TFA. The concentration of Glp formed by the action of TRH-DE on the peptide library was measured by UV absorbance at 206 nm with a quantitative detection limit of 0.1 mM for a 40 μl injection volume, employing a signal to noise ratio of 10. Following the incubation of each peptide with TRH-DE, evidence of Glp in the sample was taken to indicate that the peptide was a TRH-DE substrate.
The rates of hydrolysis for each of those peptides identified as substrates were then compared by measuring Gip production using microassays with shorter incubation times. In these assays peptide (1 mM) was incubated at 37° C. in a total volume of 100 μl. 0.8-3.2 μg TRH-DE and incubations times of 5 min to 18 h were used routinely. Measurements were made in triplicate. The rate of TRH-OH hydrolysis was also measured by this method.

[3] = calculated from percent inhibition measured in duplicate at 5 μM substrate

T1 sequence (A0A287AP33 1-1066): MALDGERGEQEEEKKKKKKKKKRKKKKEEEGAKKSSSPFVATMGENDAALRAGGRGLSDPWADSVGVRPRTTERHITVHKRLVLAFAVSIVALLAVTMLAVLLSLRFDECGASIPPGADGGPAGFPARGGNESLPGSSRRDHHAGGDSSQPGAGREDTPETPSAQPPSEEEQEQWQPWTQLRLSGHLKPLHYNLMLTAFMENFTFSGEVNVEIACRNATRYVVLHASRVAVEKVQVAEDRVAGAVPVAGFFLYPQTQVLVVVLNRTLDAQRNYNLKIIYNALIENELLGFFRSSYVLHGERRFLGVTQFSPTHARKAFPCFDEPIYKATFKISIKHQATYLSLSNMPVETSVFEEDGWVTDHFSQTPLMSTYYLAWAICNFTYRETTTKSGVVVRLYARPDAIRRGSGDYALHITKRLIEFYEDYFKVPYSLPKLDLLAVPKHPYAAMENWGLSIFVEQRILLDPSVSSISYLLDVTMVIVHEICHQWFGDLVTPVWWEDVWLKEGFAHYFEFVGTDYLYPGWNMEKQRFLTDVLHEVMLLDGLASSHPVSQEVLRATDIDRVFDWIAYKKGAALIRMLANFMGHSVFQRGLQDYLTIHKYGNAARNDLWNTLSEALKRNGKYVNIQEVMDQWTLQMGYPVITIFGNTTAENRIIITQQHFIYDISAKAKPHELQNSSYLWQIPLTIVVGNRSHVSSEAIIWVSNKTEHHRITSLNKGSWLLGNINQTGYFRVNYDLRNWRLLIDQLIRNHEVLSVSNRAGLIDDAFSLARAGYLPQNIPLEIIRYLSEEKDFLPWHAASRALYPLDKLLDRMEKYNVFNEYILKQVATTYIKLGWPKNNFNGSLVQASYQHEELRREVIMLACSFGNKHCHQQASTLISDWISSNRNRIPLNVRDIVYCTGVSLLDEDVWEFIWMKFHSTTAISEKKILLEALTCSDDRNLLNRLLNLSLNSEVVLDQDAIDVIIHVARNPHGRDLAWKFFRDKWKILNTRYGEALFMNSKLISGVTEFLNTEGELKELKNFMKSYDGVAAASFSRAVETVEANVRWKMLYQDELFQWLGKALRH

| Rate of hydrolysis (TRH-DE [2]) | Compound | further results |
| --- | --- | --- |
|  | NC(=O)[C@@H]1CCCN1C(=O)[C@@H](NC(=O)[C@@H]1CCC(=O)N1)c1ccccc1 [Glp-Phg-ProNH2] ([pGlu]-[Phg]-Pro-NH2) | Ki (TRH-DE [1]; non-linear regression, five TRHAMC concentrations and at least three peptide concentrations, mean±S.D. (n=3)): 356 ± 19 µM; inhibition at 1000 µM (TRH-DE [1]): 57%; hydrolysis by TRH-DE (release of Glp) (TRH-DE [2]): No detectable Glp |
|  | NC(=O)[C@@H]1CCCN1C(=O)[C@@H]1CCCN1C(=O)[C@@H]1CCC(=O)N1 [Glp-Pro-ProNH2] ([pGlu]-Pro-Pro-NH2) | Ki (TRH-DE [1]; estimated from <20% inhibition at 1 mM peptide with the competitive inhibition relationship): > 1000 µM; inhibition at 1000 µM (TRH-DE [1]): 3%; hydrolysis by TRH-DE (release of Glp) (TRH-DE [2]): No detectable Glp |
| 0.66 ± 0.04 (5) U mg^−1 | NC(=O)[C@@H]1CCCN1C(=O)[C@H](Cc1ccc(O)cc1)NC(=O)[C@@H]1CCC(=O)N1 [Glp-Tyr-ProNH2] ([pGlu]-Tyr-Pro-NH2) |  |
|  | COc1cccc(NC(=O)[C@@H]2CCCN2C(=O)[C@H](CC(N)=O)NC(=O)[C@@H]2CCC(=O)N2)c1 [m-anisidide] | Ki (TRH-DE [1]; [3]): 0.86 µM |
|  | COc1ccccc1NC(=O)[C@@H]1CCCN1C(=O)[C@H](CC(N)=O)NC(=O)[C@@H]1CCC(=O)N1 [o-anisidide] | Ki (TRH-DE [1]; [3]): 11.6 µM |
|  | COc1ccc(NC(=O)[C@@H]2CCCN2C(=O)[C@H](CC(N)=O)NC(=O)[C@@H]2CCC(=O)N2)cc1 [p-anisidide] | Ki (TRH-DE [1]; [3]): 3.24 µM |
| 0.06 ± 0.00 (4) U mg^−1 | Glp-Ileu-ProNH2 |  |
| 0.04 ± 0.00 (6) U mg^−1 | Glp-NorVal-ProNH2 |  |
| 0.02 ± 0.00 (3) U mg^−1 | [pGlu]-Ala-Pro-NH2 | hydrolysis by TRH-DE (release of Glp) (TRH-DE [2]): not completely degraded; also recorded: only partially degraded; Glp produced (TRH-DE [2]; 1 mM peptide, overnight incubation with TRH-DE): 0.2 mM |
| 0.41 ± 0.02 (4) U mg^−1 | [pGlu]-Arg-Pro-NH2 |  |
|  | [pGlu]-Cys-Pro-NH2 | hydrolysis by TRH-DE (release of Glp) (TRH-DE [2]): no detectable cleavage |
| 0.14 ± 0.01 (5) U mg^−1 | [pGlu]-Leu-Pro-NH2 |  |
| 0.46 ± 0.02 (3) U mg^−1 | [pGlu]-Lys-Pro-NH2 |  |
| 0.21 ± 0.03 (4) U mg^−1 | [pGlu]-Met-Pro-NH2 |  |
| 0.05 ± 0.00 (3) U mg^−1 | [pGlu]-Ser-Pro-NH2 |  |
| 0.14 ± 0.01 (5) U mg^−1 | [pGlu]-Thr-Pro-NH2 |  |
| 0.05 ± 0.00 (3) U mg^−1 | [pGlu]-Val-Pro-NH2 |  |
| 0.05 ± 0.00 (3) U mg^−1 | [pGlu]-[hPhe]-Pro-NH2 |  |
